Laboratory results from paper PMC12337661, “PIEZO1 mechanical insensitivity in generalized lymphatic dysplasia with the potential for pharmacological rescue” (iScience, 2025).
Converted amounts (≈) assume the structure as drawn.

Columns and labels:
[1] = set-up: method as in PMID 36457143, PMID 38716967, PMID 39402010; details: cited from earlier work
WT mPIEZO1 = molecular target: T1, WT mPIEZO1 (Mus musculus, UniProt E2JF22); test: Long substance exposure and hypo-osmolality protocol Ca2+ assay; assay type: cell-based; details: 10 μM, 20-min exposure, hypotonic assay
T1 construct: expressed in transfected cells
T1 sequence (E2JF22 whole entry): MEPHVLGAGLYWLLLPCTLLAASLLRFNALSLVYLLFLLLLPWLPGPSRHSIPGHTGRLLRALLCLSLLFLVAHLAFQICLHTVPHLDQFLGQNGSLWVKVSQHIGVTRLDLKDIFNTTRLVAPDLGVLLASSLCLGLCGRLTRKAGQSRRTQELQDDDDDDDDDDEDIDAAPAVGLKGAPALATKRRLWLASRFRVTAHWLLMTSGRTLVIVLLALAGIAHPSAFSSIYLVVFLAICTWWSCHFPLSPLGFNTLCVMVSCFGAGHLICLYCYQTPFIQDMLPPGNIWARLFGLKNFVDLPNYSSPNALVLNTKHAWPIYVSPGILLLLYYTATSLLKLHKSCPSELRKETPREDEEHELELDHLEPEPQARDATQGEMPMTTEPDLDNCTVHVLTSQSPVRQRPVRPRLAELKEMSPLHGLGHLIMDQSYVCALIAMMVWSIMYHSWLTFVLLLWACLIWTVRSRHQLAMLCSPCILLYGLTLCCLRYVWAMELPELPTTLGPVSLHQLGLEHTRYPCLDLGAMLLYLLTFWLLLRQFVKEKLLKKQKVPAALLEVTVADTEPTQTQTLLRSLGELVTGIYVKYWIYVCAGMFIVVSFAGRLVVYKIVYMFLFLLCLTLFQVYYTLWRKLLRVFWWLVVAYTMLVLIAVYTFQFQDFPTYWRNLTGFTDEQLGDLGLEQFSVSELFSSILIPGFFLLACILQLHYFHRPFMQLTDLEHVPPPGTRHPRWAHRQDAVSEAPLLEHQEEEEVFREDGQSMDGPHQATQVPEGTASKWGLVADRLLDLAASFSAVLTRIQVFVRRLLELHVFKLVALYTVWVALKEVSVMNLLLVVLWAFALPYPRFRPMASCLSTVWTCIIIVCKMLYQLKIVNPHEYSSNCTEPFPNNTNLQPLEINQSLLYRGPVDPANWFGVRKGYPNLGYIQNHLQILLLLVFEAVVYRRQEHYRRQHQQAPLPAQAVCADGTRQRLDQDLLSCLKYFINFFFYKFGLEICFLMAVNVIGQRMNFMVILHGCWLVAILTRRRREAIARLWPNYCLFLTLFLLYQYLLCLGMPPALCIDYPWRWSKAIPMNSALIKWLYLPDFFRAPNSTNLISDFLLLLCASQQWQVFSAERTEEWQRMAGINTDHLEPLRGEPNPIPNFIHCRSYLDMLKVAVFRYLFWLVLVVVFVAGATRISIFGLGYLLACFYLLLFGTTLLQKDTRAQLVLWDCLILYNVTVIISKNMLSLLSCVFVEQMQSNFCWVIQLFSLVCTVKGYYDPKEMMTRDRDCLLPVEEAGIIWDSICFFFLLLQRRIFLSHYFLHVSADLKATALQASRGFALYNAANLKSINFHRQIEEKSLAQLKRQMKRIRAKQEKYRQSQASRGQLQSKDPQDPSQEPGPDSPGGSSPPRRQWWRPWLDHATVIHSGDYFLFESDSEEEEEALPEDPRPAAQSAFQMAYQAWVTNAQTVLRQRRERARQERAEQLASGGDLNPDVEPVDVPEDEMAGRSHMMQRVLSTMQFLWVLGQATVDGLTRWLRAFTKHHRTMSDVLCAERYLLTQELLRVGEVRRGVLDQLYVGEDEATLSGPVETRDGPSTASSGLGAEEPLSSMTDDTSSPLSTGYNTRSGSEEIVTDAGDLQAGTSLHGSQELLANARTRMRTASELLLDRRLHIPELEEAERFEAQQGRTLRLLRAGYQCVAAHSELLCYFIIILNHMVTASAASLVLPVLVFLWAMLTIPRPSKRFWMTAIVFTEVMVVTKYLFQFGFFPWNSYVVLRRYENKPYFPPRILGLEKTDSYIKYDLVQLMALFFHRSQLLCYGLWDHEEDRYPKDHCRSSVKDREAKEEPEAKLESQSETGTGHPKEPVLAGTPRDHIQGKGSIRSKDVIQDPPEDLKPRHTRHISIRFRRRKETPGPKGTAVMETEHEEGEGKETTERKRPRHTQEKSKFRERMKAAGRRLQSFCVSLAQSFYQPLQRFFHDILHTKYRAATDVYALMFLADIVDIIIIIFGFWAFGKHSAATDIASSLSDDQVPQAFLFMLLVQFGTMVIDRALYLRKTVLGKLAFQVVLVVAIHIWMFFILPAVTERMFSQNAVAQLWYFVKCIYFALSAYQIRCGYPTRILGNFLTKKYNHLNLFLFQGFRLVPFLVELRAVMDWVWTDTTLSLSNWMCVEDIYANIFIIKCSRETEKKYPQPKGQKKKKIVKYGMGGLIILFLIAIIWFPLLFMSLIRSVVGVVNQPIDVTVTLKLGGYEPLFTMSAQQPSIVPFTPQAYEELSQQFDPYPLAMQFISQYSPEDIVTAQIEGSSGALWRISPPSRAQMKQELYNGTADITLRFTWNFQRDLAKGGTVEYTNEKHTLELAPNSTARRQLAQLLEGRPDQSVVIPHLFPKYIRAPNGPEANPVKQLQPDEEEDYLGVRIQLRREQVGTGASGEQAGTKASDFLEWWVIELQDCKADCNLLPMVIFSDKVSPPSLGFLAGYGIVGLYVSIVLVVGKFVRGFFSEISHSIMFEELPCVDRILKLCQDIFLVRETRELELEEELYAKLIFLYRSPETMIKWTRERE
Procedure: For intracellular Ca^2+ assays, cells were plated at 80–90% confluence in 96-well plates 24 h prior to recordings (6–8 × 10^4 cells per well). […] Cells were washed with SBS and incubated at room temperature for 20 min prior to recordings. Equal volumes of 2x concentrated compounds were injected to test for acute channel activation. Pre-incubation with compounds occurred during the 20 min prior to recordings. To expose cell membranes to hypo-osmolality, an equal volume of hypotonic SBS (containing only 35 mM NaCl) was injected onto the cells. Measurements were made on a fluorescence plate reader (Flexstation III, Molecular Devices) at room temperature (21 ± 2°C). Fura-2 was excited at 340 nm and 380 nm and emitted light collected at 510 nm, with measurements shown as the change in fluorescence (F) ratio (ΔF340/380).
SI Figure S5: Hypo-osm ol al it y test in the Ca2+ assay, referred to in the main paper
(a) Typical 96-well plate mean ± s.e.m. data for changes in intracellular Ca2+ evoked by hypotonic (35 mM NaCl) or normotonic (135 mM NaCl) medium for WT- or Empty vector-transfected cells in increasing concentrations of Yoda1 as indicated and colour -coded on t he right (representative of n = 3-6 independent experiments). […]

Row | Structure (SMILES) | aqueous solubility limit [1] [µM] | more effective than Yoda1 under the hypotonic condition (WT mPIEZO1)
1 | Clc1cccc(Cl)c1CSc1nnc(-c2cnccn2)s1 [Yoda1] | ~2 (≈ 0.711 µg/mL) | 
2 | O=C(O)c1ccc(-c2cnc(SCc3c(Cl)cccc3Cl)s2)cc1 [Yoda2b, 4-(2-([(2,6-Dichlorophenyl)methyl]sulfanyl)-1,3-thiazol-5-yl)benzoic acid] |  | about 25%
